Data as given in US9283261B2, “Linaclotide compositions” (Forest Laboratories Holdings Ltd., priority 2012, dated 2016).
Bridge positions count the residues as written; N and C are the ends. Peptide text beside a SMILES is read from it.

Experiments:
[1] = stability of linaclotide compositions with formaldehyde scavenger compounds, Cys1-IMD by RP-HPLC; format: physicochemical; settings: 40° C., 75% relative humidity; for % Cys1-IMD after storage 4 Weeks / % Cys1-IMD after storage 8 Weeks / % Cys1-IMD after storage 13 Week: percent of chromatogram area, labeled canister (formaldehyde stressor); for % decrease in Cys1-IMD as compared to negative control (after 13 weeks) / % Cys1-IMD after storage 13 Week: 13 weeks
Protocol: 60 cc square HPDE bottle (with 33 mm caps with induction seals) were loaded with (i) capsules containing beads coated with 145 μg or 290 μg of linaclotide, a binder, calcium chloride and leucine with an approximate molar ratio of CaCl2:leucine:linaclotide of 60:30:1, (ii) either no formaldehyde scavenger compound (negative control) or a canister comprising one of the formaldehyde scavenger compounds disclosed in Table 3, and (iii) optionally a canister containing 3 grams of a silica gel desiccant.
In addition, some of the linaclotide compositions contained a formaldehyde stressor (in particular, an adhesive label on the desiccant canister that was applied by the manufacturer of the desiccant canister (Sud Chemie) (its presence in some linaclotide compositions is indicated in the table as “labeled canister”). Regarding the formaldehyde stressor canister, it was observed by applicants that the canister emits about 27.5 ug of formaldehyde in 24 hours at 60° C.
The linaclotide compositions were stored in a 40° C., 75% relative humidity stability chamber. Next, the quantity of Cys1-IMD in each linaclotide composition was determined following 4, 8 and 13 week storage via Reverse Phase-HPLC using a gradient elution with UV detection at 220 nm. Quantitation was based on percent of chromatogram area.
Test samples of linaclotide capsules are prepared by emptying the bead contents into flasks, adding diluent and shaking for 30 minutes. The analysis used the bead contents of a composite of 6 or 8 capsules (for 290 μg and 145 μg, respectively). Operating conditions for the analytical test method by HPLC are outlined in Table 2.

[2] = tested on: adult patients with IBS-C; experiment: double-blind placebo-controlled studies in IBS-C (Study 1 and Study 2); format: in vivo, human; settings: 290 mcg discontinued
Protocol: In this regard, the efficacy of oral dosage forms comprising […] for the management of IBS-C was established in two double-blind, placebo-controlled, randomized, multicenter studies in adult patients. A total of 800 patients in Study 1 and 804 patients in Study 2 (overall mean age of 43.9 years [range 18-87 years with 5.3% ≧65 years of age], 90.1% female, 77.4% white, 18.8% black, and 12.0% Hispanic) received treatment with LINZESS 290 mcg or placebo once daily and were evaluated for efficacy. All patients met Rome II criteria for IBS and were required to report a mean abdominal pain score of ≧3 on a 0-to-10-point numeric rating scale, <3 complete spontaneous bowel movements (CSBMs; a CSBM is a spontaneous bowel movement [SBM] that is associated with a sense of complete evacuation; an SBM is a bowel movement occurring in the absence of laxative use), and ≦5 SBMs per week during a 2-week baseline period. The study designs were identical through the first 12 weeks, and thereafter differed only in that Study 1 included a 4-week randomized withdrawal (RW) period, and Study 2 continued for 14 additional weeks (total of 26 weeks) of double-blinded treatment.
Efficacy of the oral dosage form of linaclotide was assessed using responder and change-from-baseline endpoints. Results for endpoints were based on information provided daily by patients. […]

SMILES	% Cys1-IMD after storage 4 Weeks [1] [%]	% Cys1-IMD after storage 8 Weeks [1] [%]	% decrease in Cys1-IMD as compared to negative control (after 13 weeks) [1] [%]	% Cys1-IMD after storage 13 Week [1] [%]	rebound of bowel symptoms after discontinuation (4-week RW period) [2]
COC(=O)[C@H](Cc1ccccc1)NC(=O)[C@@H](N)CC(=O)O [aspartame] (H-Asp-Phe-OMe)	0.82	1.54	−27	2.58	–
CNC[C@H](O)[C@@H](O)[C@H](O)[C@H](O)CO [d-meglumine]	0.59	0.81	−76	0.84	–
NCC(=O)NCC(=O)O [glycine-glycine] (H-Gly-Gly-OH)	0.89	1.40	−44	1.98	–
N[C@@H](Cc1c[nH]cn1)C(=O)O [histidine]	0.60	0.68	−72	1.00	–
C[C@@H]1NC(=O)[C@@H]2CCCN2C(=O)[C@H](CC(N)=O)NC(=O)[C@@H]2CSSC[C@H](N)C(=O)N[C@H]3CSSC[C@H](NC1=O)C(=O)N[C@@H]([C@@H](C)O)C(=O)NCC(=O)N[C@H](C(=O)N[C@@H](Cc1ccc(O)cc1)C(=O)O)CSSC[C@H](NC(=O)[C@H](Cc1ccc(O)cc1)NC(=O)[C@H](CCC(=O)O)NC3=O)C(=O)N2 [linaclotide] (H-CCEYCCNPACTGCY-OH; disulfide 1-6, 2-10, 5-13 (inferred); N-terminus and C-terminus assumed)	–	–	–	–	no evidence of rebound worsening
NCCCC[C@H](N)C(=O)O [lysine]	0.87	1.27	−47	1.87	–

Now from value to molecule, other results behind:

% Cys1-IMD after storage 4 Weeks [1] [%]	% Cys1-IMD after storage 8 Weeks [1] [%]	% decrease in Cys1-IMD as compared to negative control (after 13 weeks) [1] [%]	% Cys1-IMD after storage 13 Week [1] [%]	SMILES	rebound of bowel symptoms after discontinuation (4-week RW period) [2]
0.56	1.11	−59	1.45	NC(=O)C[C@H](N)C(=O)O [asparagine]	–
0.84	1.26	−31	2.44	CC(C)C[C@H](N)C(=O)O [leucine]	–
0.52	0.78	−61	1.36	CC(C)C[C@H](N)C(=O)O [lyophilized leucine, leucine]	–
